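Cultured in 96-well plates, cells were exposed to test compound for 48 hours across five concentrations. Definition used: TGI = concentration required for complete inhibition of growth.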
How the values were obtained:
Assay in all cases: growth of human tumour cells (NCI), 48 h
786-0 renal = system: 786-0 renal
A498 renal = system: A498 renal
HCT-15 colon = system: HCT-15 colon
HL-60(TB) leukemia = system: HL-60(TB) leukemia
HOP-62 NSCLC = system: HOP-62 NSCLC
MOLT-4 leukemia = system: MOLT-4 leukemia
NCI-H23 lung = system: NCI-H23 lung
NCI/ADR-RES ovarian = system: NCI/ADR-RES ovarian
OVCAR-8 ovarian = system: OVCAR-8 ovarian
SK-MEL-5 melanoma = system: SK-MEL-5 melanoma
SN12C renal = system: SN12C renal
SR leukemia = system: SR leukemia
UACC-62 melanoma = system: UACC-62 melanoma

| SMILES | TGI (786-0 renal) | TGI (A498 renal) | TGI (HCT-15 colon) | TGI (HL-60(TB) leukemia) | TGI (HOP-62 NSCLC) | TGI (MOLT-4 leukemia) | TGI (NCI-H23 lung) | TGI (NCI/ADR-RES ovarian) | TGI (OVCAR-8 ovarian) | TGI (SK-MEL-5 melanoma) | TGI (SN12C renal) | TGI (SR leukemia) | TGI (UACC-62 melanoma) |
| --- | --- | --- | --- | --- | --- | --- | --- | --- | --- | --- | --- | --- | --- |
| c1csc(-c2ccc(-c3ccsc3)s2)c1 | > 100 µM | > 100 µM | > 100 µM | > 100 µM | > 100 µM | > 100 µM | > 100 µM | > 100 µM | > 100 µM | > 100 µM | > 100 µM | > 100 µM | > 100 µM |
| Cn1c2c(c3ccccc31)CC(=O)N1CCCC(C1)CC21OCCO1 (stereo not drawn) | > 100 µM | > 100 µM | > 100 µM | > 100 µM | > 100 µM | > 100 µM | > 100 µM | > 100 µM | > 100 µM | > 100 µM | > 100 µM | > 100 µM | > 100 µM |
| Nc1nc(Cl)cc(NCC2(CO)CC(c3ccccc3)C2)n1 (stereo not drawn) | > 100 µM | > 100 µM | > 100 µM | 56.9 µM | > 100 µM | 93.9 µM | > 100 µM | 92.2 µM | > 100 µM | 29.4 µM | > 100 µM | > 100 µM | > 100 µM |
| Cc1cc(O)c2c(c1)C(=O)C=C(Br)C2=O | 31.3 µM | 38.2 µM | 27.4 µM | 1.71 µM | > 100 µM | 4.45 µM | 35.5 µM | 43.1 µM | 42.3 µM | 27.4 µM | 31 µM | 42 µM | 32.4 µM |
| CCOC(=O)C(Cc1ccc2c(c1)CCC2)Cc1ccc2c(c1)CCC2 | > 100 µM | > 100 µM | > 100 µM | 58.2 µM | > 100 µM | 41.1 µM | > 100 µM | > 100 µM | > 100 µM | 40.3 µM |  | 60.1 µM |  |
| CC(C)CC(NC=O)C(=O)NC(Cc1ccccc1)NC(=O)CNC(=O)C(C)NC(=O)OC(C)(C)C (stereo not drawn) | > 100 µM | > 100 µM | > 100 µM | > 100 µM | > 100 µM | > 100 µM | > 100 µM | > 100 µM | > 100 µM | > 100 µM | > 100 µM | > 100 µM | > 100 µM |
| Nc1nc(NNc2ccccc2F)cc(=O)[nH]1 | > 100 µM | > 100 µM | > 100 µM | > 100 µM | > 100 µM | > 100 µM |  | > 100 µM | > 100 µM | > 100 µM | > 100 µM | > 100 µM |  |
| CCn1c(SCC(=O)NNC(=S)Nc2ccc(Cl)cc2)nc2ccccc2c1=O | > 100 µM | 98.3 µM | > 100 µM | 84.9 µM | > 100 µM | > 100 µM | > 100 µM | > 100 µM | > 100 µM | > 100 µM | > 100 µM | > 100 µM | > 100 µM |
| O=[N+]([O-])c1ccc(OP(=O)(O)OCC2OC(CP(=O)(O)O)C(O)C2O)cc1 (stereo not drawn) | > 100 µM | > 100 µM | > 100 µM | > 100 µM | > 100 µM | > 100 µM | > 100 µM | > 100 µM | > 100 µM | > 100 µM | > 100 µM | > 100 µM | > 100 µM |
